US20030215817A1, “Modulation of gene expression in formation of fatty atherosclerotic lesions” (priority 2003, published 2003)
Structures can show the parent of a compound that is named as a salt.

Experiments:
[1] = test system: Rec1_1 (MspI AAGC 288) mRNA; assay: quantified RT-PCR, Rec1_1; assay type: in vivo, rabbit; details: for Relative Abundance Rec1_1, 20 pg F: hypercholesterolemic plus lercanidipine racemate, eight weeks, H2 (normocholesterolemic)=1.0
Experimental: (§1) Nineteen of the isolated DST clones were further validated using RT-PCR analyses; the data are presented in FIGS. 6-24 and in Tables 5-23, below. For each DST examined, the optimal annealing temperature and reagent conditions were determined for the corresponding set of primers (see Table 25) based on results from a preliminary experiment. In eight separate reactions, each set of primers was assayed to find the optimal conditions by adjusting the following four parameters: primer concentration, dNTP concentration, MgCl2 concentration, and number of Taq polymerase units. Once optimal conditions were determined, each DST was run in duplicate multiple simultaneous reactions which usually included at least four dilutions of template (cDNA library), plus control reactions lacking template, and six sequential data points for numbers of cycles.
(§2) Reactions were performed using “Hot Start” PCR with the Clontech TaqStart antibody system (Cat. #5400-1). Each reaction contained 1 ml of the cDNA library dilution as template, determined amounts of AmpliTaq DNA polymerase (cat. #N808-0156), MgCl2, dNTPs (GibcoBRL cat. #10297-018), primer, and Clontech TaqStart Antibody in a 20 ml final reaction volume using 10×Taq buffer II (without MgCl2). Typically, a master mix containing all components except the template was prepared and aliquoted. Various templates were then added to these master mix samples and 20 ml volumes were subsequently dispensed into individual reaction tubes. At various times during the PCR run, tubes were removed sequentially on a predetermined schedule in order to quantitate expression of the target DST over a “window” of cycle times. After amplification, the samples were quantified via fluorimetry.
(§3) PCR was performed at annealing temperatures that were five degrees above the average melting temperature of each primer pair. For primers greater than 10 bases (in a 0.05M salt solution), melting temperature was calculated using the following formula: Tm=59.9+41[% GC]−[675/Primer Length], where %GC is the decimal value. Following determination of the average melting temperature of the primer pair, the annealing temperature was determined by adding five degrees to the average melting temperature. PCR was performed using the following program: 1) 95 degrees Celsius, 3 minutes; 2) 95 degrees Celsius, 30 seconds; 3) TM+5 degrees Celsius, 30 seconds; 4) 72 degrees Celsius, for a time dependent on target length at 16 bp/second; 5) repeat steps 2-4 33 more cycles; 6) 72 degrees Celsius, 3 minutes; 7) 14 degrees Celsius, forever.
(§4) Following temperature cycling, 2 ml of the PCR reaction was added to 140 ml of a 1:280 dilution of PicoGreen (Molecular Probes cat. #P-11495 (10×100 ml)) in TE pH 7.5 in a 96-well Costar UV microtiter plate (Fisher cat. #07-200623). The samples were mixed gently for 1.5 minutes and allowed to equilibrate at room temperature in the dark for 15 minutes. The concentration of the PCR products was quantified by fluorimetry using a PerSeptive Biosystems CytoFluor series 4000 multi-well plate reader.
(§5) Background fluorescence was determined by using duplicate control samples that were cycled with all reaction components except the template. The mean value from these duplicate background control samples was subtracted from the corresponding experimental values prior to analyzing results. The sensitivity of the PicoGreen dsDNA assay is reported to be 250 pg/ml (50 pg dsDNA in a […] assay volume) using a fluorescence microplate reader such as was used in these measurements.
DST clone Rec1—1 was one of the clones further evaluated by RT-PCR. The TOGA analysis of clone Rec1—1, identified as MspI AAGC 288, is discussed above and illustrated in FIGS. 1 and 2. The results of the quantified RT-PCR for Rec1—1 are shown in FIG. 6 and in Table 5 (normalized to the normocholesterolemic control value (“H2”) at each time point). […]

[2] = test system: REC1_13 (MspI GCCC 216) mRNA; assay: quantified RT-PCR, Rec1_13; assay type: in vivo, rabbit; details: for Relative Abundance Rec1_13, 100 pg F: hypercholesterolemic plus lercanidipine racemate, eight weeks, H2 (normocholesterolemic)=1.0
Experimental: as §1, §2, §3, §4
as §5, with “measurements. […]” for “measurements.”

[3] = test system: REC1_18 (MspI TGGT 241) mRNA; assay: quantified RT-PCR, Rec1_18; assay type: in vivo, rabbit; details: for Relative Abundance Rec1_18, 20 pg F: hypercholesterolemic plus lercanidipine racemate, eight weeks, H2 (normocholesterolemic)=1.0
Experimental: as §1, §2, §3, §4
as §5, with “measurements. […]” for “measurements.”

[4] = test system: REC1_5 (AGTG 184) mRNA; assay: quantified RT-PCR, Rec1_5; assay type: in vivo, rabbit; details: for Relative Abundance Rec1_5, 100 pg F: hypercholesterolemic plus lercanidipine racemate, eight weeks, H2 (normocholesterolemic)=1.0
Experimental: as §1, §2, §3, §4
as §5, with “measurements. […]” for “measurements.”

[5] = test system: REC1_19 (TGTT 393) mRNA; assay: quantified RT-PCR, Rec1_19; assay type: in vivo, rabbit; details: for Relative Abundance Rec1_19, 100 pg F: hypercholesterolemic plus lercanidipine racemate, eight weeks, H2 (normocholesterolemic)=1.0
Experimental: as §1, §2, §3, §4
as §5, with “measurements. […]” for “measurements.”

[6] = test system: Rec1_20 (TTAC 210) mRNA; assay: quantified RT-PCR, Rec1_20; assay type: in vivo, rabbit; details: for Relative Abundance Rec1_20, 20 pg F: hypercholesterolemic plus lercanidipine racemate, eight weeks, H2 (normocholesterolemic)=1.0
Experimental: as §1, §2, §3, §4
as §5, with “measurements. […]” for “measurements.”

[7] = preliminary kinetic studies: plasma levels after subcutaneous administration; assay type: in vivo; details: rabbit, sc, rabbits, after 7 days from the administration
Experimental: The doses of lercanidipine used were determined from preliminary kinetic studies.

[8] = in vivo studies (Soma 1998); cited from earlier work
[9] = hypercholesterolemic animals receiving lercanidipine racemate
[10] = hypercholesterolemic animals receiving lercanidipine

COC(=O)C1=C(C)NC(C)=C(C(=O)OC(C)(C)CN(C)CCC(c2ccccc2)c2ccccc2)C1c1cccc([N+](=O)[O-])c1 (racemic) [lercanidipine, lercanidipine hydrochloride]
Relative Abundance Rec1_1, 20 pg F ([1]; cycle 26): 7.7 | Relative Abundance Rec1_1, 20 pg F ([1]; cycle 28): 4.9 | Relative Abundance Rec1_1, 20 pg F ([1]; cycle 30): 3.2 | Relative Abundance Rec1_1, 20 pg F ([1]; cycle 32): 2.1 | Relative Abundance Rec1_1, 20 pg F ([1]; cycle 34): 1.5 | expression of Rec1_1 at 8 weeks (RT-PCR study), in words [1, 9]: elevated | Relative Abundance Rec1_13, 100 pg F ([2]; cycle 20): 1.4 | Relative Abundance Rec1_13, 100 pg F ([2]; cycle 22): 33.7 | Relative Abundance Rec1_13, 100 pg F ([2]; cycle 24): 3.0 | Relative Abundance Rec1_13, 100 pg F ([2]; cycle 26): 1.9 | Relative Abundance Rec1_13, 100 pg F ([2]; cycle 28): 1.2 | Relative Abundance Rec1_13, 100 pg F ([2]; cycle 30): 1.3 | expression of Rec1_13 at 8 weeks (RT-PCR study), in words [2, 9]: elevated | Relative Abundance Rec1_18, 20 pg F ([3]; cycle 24): 169.0 | Relative Abundance Rec1_18, 20 pg F ([3]; cycle 26): 5.8 | Relative Abundance Rec1_18, 20 pg F ([3]; cycle 28): 1.0 | Relative Abundance Rec1_18, 20 pg F ([3]; cycle 30): 1.0 | Relative Abundance Rec1_18, 20 pg F ([3]; cycle 32): 1.4 | Relative Abundance Rec1_18, 20 pg F ([3]; cycle 34): 1.1 | expression of Rec1_18 at 8 weeks (RT-PCR study), in words [3, 9]: somewhat elevated | Relative Abundance Rec1_5, 100 pg F ([4]; cycle 24): 512.5 | Relative Abundance Rec1_5, 100 pg F ([4]; cycle 26): 805.0 | Relative Abundance Rec1_5, 100 pg F ([4]; cycle 28): 0.2 | Relative Abundance Rec1_5, 100 pg F ([4]; cycle 30): 0.6 | Relative Abundance Rec1_5, 100 pg F ([4]; cycle 32): 1.1 | Relative Abundance Rec1_5, 100 pg F ([4]; cycle 34): 1.0 | expression of Rec1_5 at 8 weeks (RT-PCR study), in words ([4]; hypercholesterolemic animals receiving lercanidipine racemate, at 28-30 cycles): decreased | Relative Abundance Rec1_19, 100 pg F ([5]; cycle 24): 0.0 | Relative Abundance Rec1_19, 100 pg F ([5]; cycle 26): 0.0 | Relative Abundance Rec1_19, 100 pg F ([5]; cycle 28): 0.0 | Relative Abundance Rec1_19, 100 pg F ([5]; cycle 30): 0.1 | Relative Abundance Rec1_19, 100 pg F ([5]; cycle 32): 0.3 | Relative Abundance Rec1_19, 100 pg F ([5]; cycle 34): 0.5 | expression of Rec1_19 at 8 weeks (RT-PCR study), in words [5, 10]: decreased | Relative Abundance Rec1_20, 20 pg F ([6]; cycle 26): 0.0 | Relative Abundance Rec1_20, 20 pg F ([6]; cycle 28): 0.1 | Relative Abundance Rec1_20, 20 pg F ([6]; cycle 30): 0.2 | Relative Abundance Rec1_20, 20 pg F ([6]; cycle 32): 0.2 | Relative Abundance Rec1_20, 20 pg F ([6]; cycle 34): 0.2 | expression of Rec1_20 at 8 weeks (RT-PCR study), in words [6, 10]: decreased | concentration at 7 days ([7]; subcutaneous administration of 1 mg/kg): 500 ng/g | concentration at 7 days ([7]; subcutaneous administration of 3 mg/kg): 3200 ng/g | aortic fatty lesion deposition [8]: inhibit
